US20170226139A1, “CRYSTALLINE SALTS OF (Z)-O-OCTADEC-9-EN-1-YL O,O-DIHYDROGEN PHOSPHOROTHIOATE” (priority 2013, published 2017)
Where two headings read alike, the source gives them in different places.

Tested on: S. typhimurium strains TA98, TA100, TA1535 and TA1537 and E. coli strain WP2uvrA
Assay type: cell-based
Method: An Ames assay was conducted on Rx100.Lysine using S. typhimurium strains TA98, TA100, TA1535 and TA1537 and E. coli strain WP2uvrA. Two trials were performed. […] See Tables 38A and 38B, respectively. In the second trial, doses ranged from 0.160 to 16 μg/plate with some strains tested with activation and others without activation.

COc1ccc2nc3cc(Cl)ccc3c(NCCCNCCCl)c2c1 [ICR-191]
Revertant Colony Counts (Mean ± SD) (Without Metabolic Activation, TA1537, positive control 2.0 μg/plate): 562 ± 33 ^N

Nc1ccc2cc3ccccc3cc2c1 [2-aminoanthracene]
Revertant Colony Counts (Mean ± SD) (TA100, with metabolic activation, positive control 2.5 μg/plate): 2106 ± 68 ^N
Revertant Colony Counts (Mean ± SD) (TA1535, with metabolic activation, positive control 2.5 μg/plate): 205 ± 11 ^N
Revertant Colony Counts (Mean ± SD) (TA1537, with metabolic activation, positive control 2.5 μg/plate): 176 ± 19 ^N C
Revertant Colony Counts (Mean ± SD) (WP2uvrA, with metabolic activation, positive control 25.0 μg/plate): 634 ± 14 ^N

O=[N+]([O-])c1ccc2c(c1)Cc1ccccc1-2 [2-nitrofluorene]
Revertant Colony Counts (Mean ± SD) (Without Metabolic Activation, TA98, positive control 1.0 μg/plate): 329 ± 65 ^N

[N-]=[N+]=[N-] [sodium azide]
Revertant Colony Counts (Mean ± SD) (Without Metabolic Activation, TA100, positive control 2.0 μg/plate): 969 ± 137 ^N
Revertant Colony Counts (Mean ± SD) (Without Metabolic Activation, TA1535, positive control 2.0 μg/plate): 863 ± 45 ^N
